# Experimental data: PMC10850145, “Hormonal steroids induce multidrug resistance and stress response genes in Neisseria gonorrhoeae by binding to MtrR” (Nature Communications, 2024)
# “And” between values parts separate entries of the source, which are not always exact repeats. Identical values can stand only once. Like-named read-outs stand apart in the source and are kept apart here.
# Columns and labels:
# [1] = target: T1, MtrR W136A (Neisseria gonorrhoeae, UniProt P39897, W136A); assay: biochemical; type: binding
# T1 construct: Hexa-histidine tag with TEV protease cleavage site (N, cleaved yes); made in house; host or cells: E. coli Rosetta Gami B(DE3) pLysS
# [2] = test system: gonococcal strain FA19; assay: MIC of steroidal hormones on GC agar, strain FA19; type: cell-based; settings: Neisseria gonorrhoeae
# Experimental: (§1) To determine the minimal inhibitory concentrations (MICs) by the steroidal hormones and their effect on antimicrobial susceptibility, 5 x 10^5 CFU and 1:5 serial dilutions of gonococcal strains were spotted on GC agar plates containing different concentrations of antibiotics and/or hormones as indicated. Antimicrobial susceptibility was assessed after 24 h incubation.
# (§2) Table S1. Steroidal hormones are substrates of the MtrCDE efflux pump
# (§3) Progesterone Testosterone
# (§4) *Minimal inhibition concentration is defined by the lowest concentration at which visible growth is […]
# [3] = test system: FA19 mtrD::kan (KH14); assay: MIC of steroidal hormones on GC agar, FA19 mtrD::kan (KH14); type: cell-based, Neisseria gonorrhoeae
# Experimental: as §1, §2, §3, §4
# [4] = test system: rpoH-lacZ expression; type: cell-based, Neisseria gonorrhoeae; settings: for Miller units, single well: individual replicate; for Plate-6 (Testosterone) Miller units, Mean / Plate-6 (Testosterone) Miller units: right (rpoH) half of sheet
# [5] = rpoH-lacZ, ΔmtrR + mtrR D171A in trans, 6.25 µM hormone, single replicate
# [6] = rpoH-lacZ, ΔmtrR + mtrR D171A in trans, 12.5 µM hormone, single replicate
# [7] = rpoH-lacZ, ΔmtrR + mtrR D171A in trans, 25 µM hormone, single replicate
# [8] = rpoH-lacZ, ΔmtrR + mtrR D171A in trans, 50 µM hormone, single replicate
# [9] = rpoH-lacZ, ΔmtrR + mtrR WT in trans, 25 µM hormone, single replicate
# T1 sequence (P39897 whole entry W136A): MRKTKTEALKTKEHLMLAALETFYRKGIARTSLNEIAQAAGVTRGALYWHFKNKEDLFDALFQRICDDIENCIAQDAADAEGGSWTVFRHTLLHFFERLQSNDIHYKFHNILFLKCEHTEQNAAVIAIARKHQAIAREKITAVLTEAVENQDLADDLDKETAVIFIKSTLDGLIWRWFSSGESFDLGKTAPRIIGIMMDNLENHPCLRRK
smiles,measurement,setting,value
"C[C@]12CC[C@H]3[C@@H](CCC4=CC(=O)CC[C@@]43C)[C@@H]1CC[C@@H]2O [Testosterone, testosterone]",Kd,[1],5.79 ± 1.4 µM
same,MIC,[2]; FA19,160 µg/mL
same,MIC,"[2]; FA19, 24 h",555 µM
same,MIC,[3]; Neisseria gonorrhoeae,40 µg/mL and 139 µM
same,effect of mtrD deletion on MIC,[3]; vs FA19,lowered
same,"Miller units, single well","[4]; 6.25 µM hormone, plate columns 1-6 (WT)",114 Miller units and 127 Miller units and 153 Miller units
same,"Miller units, Mean","[4]; 6.25 µM hormone, plate columns 1-6 (WT), mean of 4 wells",125 Miller units
same,"Miller units, Mean","[4]; 6.25 µM hormone, plate columns 1-6 (WT), mean of plate rows 5-8 (rpoH)",125 Miller units
same,Miller units,"[4]; 6.25 µM hormone, plate columns 1-6 (WT), plate rows 5-8 (rpoH), single well",114 Miller units and 127 Miller units and 153 Miller units and 108 Miller units
same,Miller units,"[4]; 6.25 µM hormone, plate columns 7-12 (second strain not given), plate rows 5-8 (rpoH), single well",161 Miller units and 167 Miller units and 191 Miller units and 162 Miller units
same,"Miller units, Mean","[4]; 6.25 µM hormone, plate columns 7-12 (second strain), mean of plate rows 5-8 (rpoH)",170 Miller units
same,"Miller units, single well","[4]; 6.25 µM hormone, plate columns 7-12 (second strain, not WT)",161 Miller units and 167 Miller units and 191 Miller units
same,"Miller units, Mean","[4]; 6.25 µM hormone, plate columns 7-12 (second strain, not WT), mean of 4 wells",170 Miller units
same,"Plate-6 (Testosterone) Miller units, Mean","[4]; 6.25 µM, plate column 3, mean of plate rows 5-8",43 Miller units
same,Plate-6 (Testosterone) Miller units,"[4]; 6.25 µM, plate column 3, plate rows 5-8, single wells",39 Miller units and 46 Miller units and 47 Miller units
same,"Plate-6 (Testosterone) Miller units, Mean","[4]; 6.25 µM, plate column 9, mean of plate rows 5-8",64 Miller units
same,Plate-6 (Testosterone) Miller units,"[4]; 6.25 µM, single wells",55 Miller units and 57 Miller units and 65 Miller units and 80 Miller units
same,"Miller units, single well","[4]; 12.5 µM hormone, plate columns 1-6 (WT)",120 Miller units and 124 Miller units and 149 Miller units
same,"Miller units, Mean","[4]; 12.5 µM hormone, plate columns 1-6 (WT), mean of 4 wells",130 Miller units
same,"Miller units, Mean","[4]; 12.5 µM hormone, plate columns 1-6 (WT), mean of plate rows 5-8 (rpoH)",130 Miller units
same,Miller units,"[4]; 12.5 µM hormone, plate columns 1-6 (WT), plate rows 5-8 (rpoH), single well",120 Miller units and 124 Miller units and 149 Miller units and 125 Miller units
same,Miller units,"[4]; 12.5 µM hormone, plate columns 7-12 (second strain not given), plate rows 5-8 (rpoH), single well",161 Miller units and 177 Miller units and 186 Miller units and 176 Miller units
same,"Miller units, Mean","[4]; 12.5 µM hormone, plate columns 7-12 (second strain), mean of plate rows 5-8 (rpoH)",175 Miller units
same,"Miller units, single well","[4]; 12.5 µM hormone, plate columns 7-12 (second strain, not WT)",161 Miller units and 177 Miller units and 186 Miller units
same,"Miller units, Mean","[4]; 12.5 µM hormone, plate columns 7-12 (second strain, not WT), mean of 4 wells",175 Miller units
same,"Plate-6 (Testosterone) Miller units, Mean","[4]; 12.5 µM, plate column 4, mean of plate rows 5-8",52 Miller units
same,Plate-6 (Testosterone) Miller units,"[4]; 12.5 µM, plate column 4, plate rows 5-8, single wells",51 Miller units and 50 Miller units and 56 Miller units and 52 Miller units
same,"Plate-6 (Testosterone) Miller units, Mean","[4]; 12.5 µM, plate column 10, mean of plate rows 5-8",62 Miller units
same,Plate-6 (Testosterone) Miller units,"[4]; 12.5 µM, plate column 10, plate rows 5-8, single wells",58 Miller units and 54 Miller units and 63 Miller units and 74 Miller units
same,"Miller units, single well","[4]; 25 µM hormone, plate columns 1-6 (WT)",127 Miller units and 137 Miller units
same,"Miller units, Mean","[4]; 25 µM hormone, plate columns 1-6 (WT), mean of 4 wells",133 Miller units
same,"Miller units, Mean","[4]; 25 µM hormone, plate columns 1-6 (WT), mean of plate rows 5-8 (rpoH)",133 Miller units
same,Miller units,"[4]; 25 µM hormone, plate columns 1-6 (WT), plate rows 5-8 (rpoH), single well",127 Miller units and 137 Miller units and 133 Miller units
same,Miller units,"[4]; 25 µM hormone, plate columns 7-12 (second strain not given), plate rows 5-8 (rpoH), single well",168 Miller units and 179 Miller units and 147 Miller units and 185 Miller units
same,"Miller units, Mean","[4]; 25 µM hormone, plate columns 7-12 (second strain), mean of plate rows 5-8 (rpoH)",170 Miller units
same,"Miller units, single well","[4]; 25 µM hormone, plate columns 7-12 (second strain, not WT)",168 Miller units and 179 Miller units and 147 Miller units
same,"Miller units, Mean","[4]; 25 µM hormone, plate columns 7-12 (second strain, not WT), mean of 4 wells",170 Miller units
same,"Plate-6 (Testosterone) Miller units, Mean","[4]; 25 µM, plate column 5, mean of plate rows 5-8",63 Miller units
same,Plate-6 (Testosterone) Miller units,"[4]; 25 µM, plate column 5, plate rows 5-8, single wells",68 Miller units and 55 Miller units and 57 Miller units and 70 Miller units
same,"Plate-6 (Testosterone) Miller units, Mean","[4]; 25 µM, plate column 11, mean of plate rows 5-8",65 Miller units
same,Plate-6 (Testosterone) Miller units,"[4]; 25 µM, plate column 11, plate rows 5-8, single wells",64 Miller units and 60 Miller units and 68 Miller units and 67 Miller units
same,"Miller units, single well","[4]; 50 µM hormone, plate columns 1-6 (WT)",140 Miller units and 146 Miller units and 175 Miller units
same,"Miller units, Mean","[4]; 50 µM hormone, plate columns 1-6 (WT), mean of 4 wells",152 Miller units
same,"Miller units, Mean","[4]; 50 µM hormone, plate columns 1-6 (WT), mean of plate rows 5-8 (rpoH)",152 Miller units
same,Miller units,"[4]; 50 µM hormone, plate columns 1-6 (WT), plate rows 5-8 (rpoH), single well",140 Miller units and 146 Miller units and 175 Miller units
same,Miller units,"[4]; 50 µM hormone, plate columns 7-12 (second strain not given), plate rows 5-8 (rpoH), single well",166 Miller units and 158 Miller units and 156 Miller units
same,"Miller units, Mean","[4]; 50 µM hormone, plate columns 7-12 (second strain), mean of plate rows 5-8 (rpoH)",162 Miller units
same,"Miller units, single well","[4]; 50 µM hormone, plate columns 7-12 (second strain, not WT)",166 Miller units and 158 Miller units and 156 Miller units
same,"Miller units, Mean","[4]; 50 µM hormone, plate columns 7-12 (second strain, not WT), mean of 4 wells",162 Miller units
same,"Plate-6 (Testosterone) Miller units, Mean","[4]; 50 µM, plate column 6, mean of plate rows 5-8",68 Miller units
same,Plate-6 (Testosterone) Miller units,"[4]; 50 µM, plate column 6, plate rows 5-8, single wells",76 Miller units and 71 Miller units and 62 Miller units and 63 Miller units
same,"Plate-6 (Testosterone) Miller units, Mean","[4]; 50 µM, plate column 12, mean of plate rows 5-8",57 Miller units
same,Plate-6 (Testosterone) Miller units,"[4]; 50 µM, single wells",65 Miller units and 49 Miller units and 56 Miller units and 58 Miller units
same,induction of rpoH expression,"[4]; complemented (MtrR+) strains, increasing hormone",could be induced
same,induction of rpoH expression,[4]; loss of MtrR or MtrR-D171A strain,abrogated
same,Miller units,[4]; [5],55 Miller units and 65 Miller units
same,β-galactosidase activity (Miller units),[4]; [5],55 Miller units and 57 Miller units and 80 Miller units
same,Miller units,[4]; [6],63 Miller units
same,β-galactosidase activity (Miller units),[4]; [6],58 Miller units and 54 Miller units and 74 Miller units
same,Miller units,[4]; [7],68 Miller units
same,β-galactosidase activity (Miller units),[4]; [7],64 Miller units and 60 Miller units and 67 Miller units
same,Miller units,[4]; [8],56 Miller units
same,β-galactosidase activity (Miller units),[4]; [8],65 Miller units and 49 Miller units and 58 Miller units
same,β-galactosidase activity (Miller units),"[4]; rpoH-lacZ, ΔmtrR + mtrR WT in trans, 6.25 µM hormone, single replicate",39 Miller units and 46 Miller units and 47 Miller units
same,β-galactosidase activity (Miller units),"[4]; rpoH-lacZ, ΔmtrR + mtrR WT in trans, 12.5 µM hormone, single replicate",51 Miller units and 50 Miller units and 56 Miller units and 52 Miller units
same,Miller units,[4]; [9],55 Miller units
same,β-galactosidase activity (Miller units),[4]; [9],68 Miller units and 55 Miller units and 57 Miller units and 70 Miller units
same,β-galactosidase activity (Miller units),"[4]; rpoH-lacZ, ΔmtrR + mtrR WT in trans, 50 µM hormone, single replicate",76 Miller units and 71 Miller units and 62 Miller units and 63 Miller units
same,β-galactosidase activity (Miller units),"[4]; rpoH-lacZ, ΔmtrR strain, 6.25 µM hormone, single replicate",119 Miller units and 89 Miller units and 76 Miller units
same,β-galactosidase activity (Miller units),"[4]; rpoH-lacZ, ΔmtrR strain, 12.5 µM hormone, single replicate",126 Miller units and 100 Miller units and 81 Miller units
same,β-galactosidase activity (Miller units),"[4]; rpoH-lacZ, ΔmtrR strain, 25 µM hormone, single replicate",155 Miller units and 93 Miller units and 79 Miller units
same,β-galactosidase activity (Miller units),"[4]; rpoH-lacZ, ΔmtrR strain, 50 µM hormone, single replicate",151 Miller units and 101 Miller units and 93 Miller units
same,Miller units,"[4]; rpoH-lacZ, ΔmtrR, 6.25 µM hormone, single replicate",100 Miller units
same,Miller units,"[4]; rpoH-lacZ, ΔmtrR, 12.5 µM hormone, single replicate",101 Miller units
same,Miller units,"[4]; rpoH-lacZ, ΔmtrR, 25 µM hormone, single replicate",122 Miller units
same,Miller units,"[4]; rpoH-lacZ, ΔmtrR, 50 µM hormone, single replicate",132 Miller units
same,"β-galactosidase activity, rpoH-lacZ, Mean","[4]; strain WT (FA19/pLES94-rpoH), hormone 6.25 µM",69 Miller units
same,"β-galactosidase activity, rpoH-lacZ, Mean","[4]; strain WT (FA19/pLES94-rpoH), hormone 12.5 µM",81 Miller units
same,"β-galactosidase activity, rpoH-lacZ, Mean","[4]; strain WT (FA19/pLES94-rpoH), hormone 25 µM",98 Miller units
same,"β-galactosidase activity, rpoH-lacZ, Mean","[4]; strain WT (FA19/pLES94-rpoH), hormone 50 µM",117 Miller units
same,activation of rpoH,[4]; strain producing MtrR R176E,significantly less activation
same,"β-galactosidase activity, rpoH-lacZ, Mean","[4]; strain ΔmtrR (FA19 ∆mtrR/pLES94-rpoH), hormone 6.25 µM",96 Miller units
same,"β-galactosidase activity, rpoH-lacZ, Mean","[4]; strain ΔmtrR (FA19 ∆mtrR/pLES94-rpoH), hormone 12.5 µM",102 Miller units
same,"β-galactosidase activity, rpoH-lacZ, Mean","[4]; strain ΔmtrR (FA19 ∆mtrR/pLES94-rpoH), hormone 25 µM",112 Miller units
